Measured values published in patent US20240301319A1, “PERFUMING COMPOSITIONS” (FIRMNICH SA, priority 2017, published 2024).
Counter-ions that a name gives are not always drawn. Like-named read-outs stand apart in the source and are kept apart here.

Key:
[1] = Volatility of perfuming compounds (Tables 4 to 10), with top/middle/bottom note type; type: physicochemical
Method in brief: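 Volatility is expressed in μg/l in air. Top notes are 70,000 to 100 μg/l, middle notes 99 to 50 μg/l, and bottom notes 49 to 0.1 μg/l. Compounds are grouped by olfactive family: watery, green, fruity, citrus, sweet, gourmand and woody.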

[2] = Odor threshold and odor value of perfuming compounds (Tables 4 to 10)
[3] = Table 6, perfuming compounds having a fruity note
[4] = Table 6, perfuming compounds having a fruity note, note type by volatility
[5] = Table 8, perfuming compounds having a sweet note
[6] = Table 8, perfuming compounds having a sweet note, note type by volatility
[7] = Table 9, perfuming compounds having a gourmand note, note type by volatility
[8] = note type (Top/Middle/Bottom) by volatility, perfuming compounds having a green note
[9] = perfuming compounds having a green note
[10] = Table 7, citrus note, top, middle or bottom note
[11] = Table 7, citrus note, equals volatility divided by odor threshold
[12] = Table 4, watery note, top, middle or bottom note
[13] = Table 4, watery note, equals volatility divided by odor threshold

SMILES: CCCCC1CCCC(=O)O1 (stereo not shown) [5-NONANOLIDE]
- Volatility [1, 3]: 23.87 μg/l air
- Type [1, 4]: Bottom
- Volatility [1, 5]: 23.87 μg/l air
- Type [1, 6]: Bottom
- Volatility ([1]; Table 9, gourmand note): 23.87 μg/l air
- Type [1, 7]: Bottom
- Odor Threshold [2, 3]: 1.16E−05 μg/l air
- Odor Value [2, 3]: 2.06E+06
- Odor Threshold [2, 5]: 1.16E−05 μg/l air
- Odor Value [2, 5]: 2.06E+06
- Odor Threshold ([2]; Table 9, gourmand note): 1.16E−05 μg/l air

SMILES: CCCCSCCCC [DIBUTYL SULFIDE]
- Type [1, 8]: Top
- Volatility (μg/l air) [1, 9]: 2766.10 μg/l air
- Odor Threshold (μg/l air) [2, 9]: 2.34E−02 μg/l air

SMILES: CC(=O)OC(c1ccccc1)C(Cl)(Cl)Cl (racemic) [(+−)-2,2,2-TRICHLORO-1-PHENYLETHYL ACETATE]
- Volatility [1, 3]: 11.96 μg/l air
- Type [1, 4]: Bottom
- Volatility (μg/l air) ([1]; Table 7, citrus note): 11.96 μg/l air
- Type [1, 10]: Bottom
- Odor Threshold [2, 3]: 1.15E−03 μg/l air
- Odor Value [2, 3]: 1.04E+04
- Odor Threshold (μg/l air) ([2]; Table 7, citrus note): 1.15E−03 μg/l air
- Odor Value [2, 11]: 1.04E+04

SMILES: CCC(CC(C)CC)=NO (stereo not shown) [5-METHYL-3-HEPTANONEOXIME]
- Volatility ([1]; Table 9, gourmand note): 128.04 μg/l air
- Type [1, 7]: Top
- Odor Threshold ([2]; Table 9, gourmand note): 8.80E−03 μg/l air

SMILES: CCCCCCCCCC(C)C=O (racemic) [(+−)-2-methylundecanal]
- Volatility (μg/l air) ([1]; Table 4, watery note): 75.55 μg/l air
- Type [1, 12]: middle (perfuming compounds having a volatility ranging from 99 to 50 μg/l in air are referred to as “middle notes”)
- Odor Threshold (μg/l air) ([2]; Table 4, watery note): 7.24E−05 μg/l air
- Odor Value [2, 13]: 1.04E+06

SMILES: COC(=O)c1c(C)cc(O)c(C)c1O [METHYL 2,4-DIHYDROXY-3,6-DIMETHYLBENZOATE]
- Volatility (μg/l air) ([1]; Table 4, watery note): 1.52 μg/l air
- Type [1, 12]: bottom (perfuming compounds having a volatility ranging from 49 to 0.1 μg/l in air are referred to as “bottom notes”)
- Odor Threshold (μg/l air) ([2]; Table 4, watery note): 4.89E−06 μg/l air
- Odor Value [2, 13]: 3.11E+05

SMILES: CC(C)(C)C(=O)OCCc1ccccc1 [2-PHENYLETHYL PIVALATE]
- Volatility [1, 3]: 71.44 μg/l air
- Type [1, 4]: Middle
- Volatility [1, 5]: 71.44 μg/l air
- Type [1, 6]: Middle
- Volatility ([1]; Table 9, gourmand note): 71.44 μg/l air
- Type [1, 7]: Middle
- Odor Threshold [2, 3]: 3.85E−02 μg/l air
- Odor Value [2, 3]: 1.86E+03
- Odor Threshold [2, 5]: 3.85E−02 μg/l air
- Odor Value [2, 5]: 1.86E+03
- Odor Threshold ([2]; Table 9, gourmand note): 3.85E−02 μg/l air

SMILES: CC/C=C\CC1=C(C)CCC1=O
- Volatility [1, 5]: 56.72 μg/l air
- Type [1, 6]: Middle
- Volatility ([1]; Table 9, gourmand note): 56.72 μg/l air
- Type [1, 7]: Middle
- Odor Threshold [2, 5]: 2.16E−04 μg/l air
- Odor Value [2, 5]: 2.63E+05
- Odor Threshold ([2]; Table 9, gourmand note): 2.16E−04 μg/l air

SMILES: CCCCCCCCC=O [nonanal]
- Volatility (μg/l air) ([1]; Table 7, citrus note): 2777.63 μg/l air
- Type [1, 10]: Top
- Type [1, 8]: Top
- Volatility (μg/l air) [1, 9]: 2777.63 μg/l air
- Odor Threshold (μg/l air) ([2]; Table 7, citrus note): 8.14E−03 μg/l air
- Odor Value [2, 11]: 3.41E+05
- Odor Threshold (μg/l air) [2, 9]: 8.14E−03 μg/l air

SMILES: CCCCOC(C)=O [BUTYL ACETATE]
- Volatility [1]: 117207.52 μg/l air
- Type [1, 4]: TOP (perfuming compounds having a volatility ranging from 70,000 to 100 μg/l in air are referred to as “top notes”)
- Type [1, 6]: Top
- Type [1, 7]: Top
- Odor Threshold [2, 5]: 4.18E−01 μg/l air
- Odor Value [2, 5]: 2.80E+05
- Odor Threshold ([2]; Table 9, gourmand note): 4.18E−01 μg/l air

SMILES: C=CCCCCCCCCC=O [10-undecenal]
- Volatility (μg/l air) ([1]; Table 4, watery note): 136.73 μg/l air
- Type [1, 12]: TOP (perfuming compounds having a volatility ranging from 70,000 to 100 μg/l in air are referred to as “top notes”)
- Odor Threshold (μg/l air) ([2]; Table 4, watery note): 3.15E−03 μg/l air
- Odor Value [2, 13]: 4.34E+04

SMILES: CC1OCCC12NCCS2 (racemic)
- Volatility [1, 5]: 52.47 μg/l air
- Type [1, 6]: Middle
- Odor Threshold [2, 5]: 2.53E−06 μg/l air
- Odor Value [2, 5]: 2.07E+07

SMILES: CC1COCc2cc3c(cc21)C(C)(C)C(C)C3(C)C (racemic)
- Volatility [1, 3]: 1.59 μg/l air
- Type [1, 4]: Bottom
- Odor Threshold [2, 3]: 2.62E−04 μg/l air
- Odor Value [2, 3]: 6.08E+03

SMILES: CCCC1CCCC(=O)O1 (racemic) [(+−)-6-propyltetrahydro-2H-pyran-2-one]
- Volatility [1, 3]: 57.43 μg/l air
- Type [1, 4]: Middle
- Volatility (μg/l air) ([1]; Table 7, citrus note): 57.43 μg/l air
- Type [1, 10]: Middle
- Odor Threshold [2, 3]: 2.17E−04 μg/l air
- Odor Value [2, 3]: 2.65E+05
- Odor Threshold (μg/l air) ([2]; Table 7, citrus note): 2.17E−04 μg/l air
- Odor Value [2, 11]: 2.65E+05

SMILES: CCCC1CCC(O)C(OC)C1 (stereo not shown) [2-METHOXY-4-PROPYL-1-CYCLOHEXANOL]
- Volatility (μg/l air) [1]: 189.74 μg/l air
- Type [1, 8]: Top
- Odor Threshold (μg/l air) [2, 9]: 2.85E−02 μg/l air

SMILES: C=C(C)CC(C(C)=O)C(=O)OCC (racemic)
- Volatility [1, 3]: 295.22 μg/l air
- Type [1, 4]: TOP (perfuming compounds having a volatility ranging from 70,000 to 100 μg/l in air are referred to as “top notes”)
- Type [1, 8]: Top
- Volatility (μg/l air) [1, 9]: 295.22 μg/l air
- Odor Threshold (μg/l air) [2, 9]: 3.64E−03 μg/l air

SMILES: CCCOC(=O)[C@H](C)OC(C)(C)CC [(−)-PROPYL (S)-2-(1,1-DIMETHYLPROPOXY)PROPANOATE]
- Volatility (μg/l air) ([1]; Table 7, citrus note): 995.16 μg/l air
- Type [1, 10]: Top
- Odor Threshold (μg/l air) ([2]; Table 7, citrus note): 4.98E−01 μg/l air
- Odor Value [2, 11]: 2.00E+03

SMILES: CC(=O)OC(C)c1ccccc1 (racemic) [(+−)-1-PHENYLETHYL ACETATE]
- Volatility [1, 3]: 387.96 μg/l air
- Type [1, 4]: TOP (perfuming compounds having a volatility ranging from 70,000 to 100 μg/l in air are referred to as “top notes”)
- Volatility (μg/l air) ([1]; Table 7, citrus note): 387.96 μg/l air
- Type [1, 10]: Top
- Odor Threshold (μg/l air) ([2]; Table 7, citrus note): 4.43E−02 μg/l air
- Odor Value [2, 11]: 8.75E+03

SMILES: CC(C)=CCCC(C)CCOC=O (racemic) [(+−)-3,7-DIMETHYL-6-OCTENYL FORMATE]
- Volatility [1, 3]: 262.84 μg/l air
- Type [1, 4]: TOP (perfuming compounds having a volatility ranging from 70,000 to 100 μg/l in air are referred to as “top notes”)
- Type [1, 8]: Top
- Volatility (μg/l air) [1, 9]: 262.84 μg/l air
- Odor Threshold (μg/l air) [2, 9]: 1.72E−03 μg/l air

SMILES: CCCCCCO [1-hexanol]
- Type [1, 8]: Top
- Volatility (μg/l air) [1, 9]: 2070.00 μg/l air
- Odor Threshold (μg/l air) [2, 9]: 1.17E−01 μg/l air

SMILES: COc1cc(C)ccc1O [2-METHOXY-4-METHYLPHENOL]
- Volatility [1, 5]: 306.61 μg/l air
- Type [1, 6]: Top
- Odor Threshold [2, 5]: 6.96E−04 μg/l air
- Odor Value [2, 5]: 4.41E+05

SMILES: C=CC(C)=CCC=C(C)C
- Volatility [1, 3]: 3480.57 μg/l air
- Type [1, 4]: TOP (perfuming compounds having a volatility ranging from 70,000 to 100 μg/l in air are referred to as “top notes”)
- Type [1, 8]: Top
- Volatility (μg/l air) [1, 9]: 3480.57 μg/l air
- Odor Threshold (μg/l air) [2, 9]: 2.57E−02 μg/l air

SMILES: CCCCO [1-BUTANOL]
- Volatility [1, 5]: 17700.00 μg/l air
- Type [1, 6]: Top
- Volatility ([1]; Table 9, gourmand note): 17700.00 μg/l air
- Type [1, 7]: Top
- Type ([1]; Table 10, perfuming compounds having a woody note, note type by volatility): Top
- Volatility ([1]; Table 10, woody note): 17700.00 μg/l air
- Type [1, 8]: Top
- Volatility (μg/l air) [1, 9]: 17700.00 μg/l air
- Odor Threshold [2, 5]: 8.70E−02 μg/l air
- Odor Value [2, 5]: 2.03E+05
- Odor Threshold ([2]; Table 9, gourmand note): 8.70E−02 μg/l air
- Odor Threshold ([2]; Table 10, woody note): 8.70E−02 μg/l air
- Odor Threshold (μg/l air) [2, 9]: 8.70E−02 μg/l air

SMILES: COC(=O)C1C(C)=CCCC1(C)C (racemic)
- Type [1, 8]: Top
- Volatility (μg/l air) [1, 9]: 2010.91 μg/l air
- Odor Threshold (μg/l air) [2, 9]: 1.06E−02 μg/l air
